Experimental data taken from patent publication US11345756B2, “CCR3 inhibition for ocular angiogenesis and macular degeneration” (University of Kentucky Research Foundation, priority 2006, dated 2022).

System: CNV (choroidal neovascularization)
Test: Laser-induced CNV volume, confocal evaluation of isolectin B4 stained RPE-choroid flatmounts
Format: in vivo
Conditions: C57BL/6J mice, laser injury, blockade of CCR3 ligand by neutralizing antibody injected into the vitreous humor; compared to control antibodies, all Ps<0.001
Protocol: Laser photocoagulation (532 nm, 200 mW, 100 ms, 75 μm) (OCULIGHT™ GL, Index Corporation) was performed (volume studies: 3/eye; protein analyses/flow cytometry: 12/eye) on both eyes of each animal to induce CNV (choroidal neovascularization). CNV volumes were measured by scanning laser confocal microscope (TCS SP, Leica) with 0.5% FITC-Griffonia simplicifolia Isolectin B4 (Vector Laboratories). CNV was induced by laser injury in C57BL/6J and Ccr3^−/− mice and volumes measured 7 days later by confocal evaluation of Griffonia simplicifolia Isolectin B4 staining of RPE-choroid flatmounts. Neutralizing antibodies (Ab) against CCR3, eotaxin (CCL-11), eotaxin-2 (CCL-24), RANTES, MCP-3 or control goat IgG or rat IgG2a were injected into the vitreous humor following injury.
Because the probability of each laser lesion developing CNV is influenced by the group to which it belongs, the mouse, the eye, and the laser spot, the mean lesion volumes were compared using a linear mixed model with a split plot repeated measures design. The whole plot factor was the genetic group to which the animal belonged while the split plot factor was the eye. Statistical significance was determined at the 0.05 level. Post hoc comparison of means was constructed with a Bonferroni adjustment for multiple comparisons.

**Q.** Which “suppression of CNV” value does the source give for eotaxin here?
**A.** 45%
